In brackets after ≈: the same amount, converted by molar mass. Activity calls are given as the source filed them. The calls are words filed in the database; no cut-off is given here.
Columns and labels:
[1] = biological target: T1, Indoleamine 2,3-dioxygenase 1 (Homo sapiens, UniProt P14902)
[2] = biological target: T2, Tryptophan 2,3-dioxygenase (Homo sapiens, UniProt P48775); test: Inhibition of TDO (unknown origin) assessed as reduction in L-kynurenine formation using L-tryptophan as substrate incubated for 30 mins microplate spectrophotometry analysis
[3] = Toxicity in C57BL/6 mouse […] with […] cells assessed as effect on body weight at 30 mg/kg, ip administered for 11 days and measured upto 20 days; format: organism-based; conditions: in vivo, time <=20 day
[4] = Antitumor activity against […] cells allografted in C57BL/6 mouse assessed as tumor growth inhibition at 30 mg/kg, ip administered for 11 days and measured upto 20 days relative to control; format: functional; conditions: Hepa1-6, ip, time day <=20, read-out: TGI
[5] = Redox activity of compound assessed as increase in H2O2 production at > 50 uM incubated for 15 mins by HRP-PR staining based fluorometric analysis relative to control; format: physicochemical; conditions: 0.25 h
[6] = biological target: T1, Indoleamine 2,3-dioxygenase 1; test: Inhibition of IDO1 in IFN-gamma-induced human HeLa cells assessed as reduction in L-kynurenine formation using L-tryptophan as substrate incubated for 24 hrs
[7] = Redox activity of compound assessed as increase in H2O2 production incubated for 15 mins by HRP-PR staining based fluorometric analysis; format: physicochemical; conditions: 0.25 h
[8] = Toxicity in C57BL/6 mouse […] with […] cells assessed as effect on body weight at 30 mg/kg, ip administered for 11 days and measured upto 20 days; format: organism-based; conditions: in vivo, time <=20 day
[9] = Antitumor activity against […] cells allografted in C57BL/6 mouse assessed as tumor growth inhibition at 30 mg/kg, ip administered for 11 days and measured upto 20 days relative to control; format: functional; conditions: LL/2, ip, time day <=20, read-out: TGI
[10] = Solubility of compound; format: physicochemical
[11] = biological target: T2, Tryptophan 2,3-dioxygenase; test: Inhibition of TDO in human A 172 cells assessed as reduction in L-kynurenine formation using L-tryptophan as substrate incubated for 24 hrs; format: cell-based
LL2 = conditions: dose 30.0 mg/kg, time day <=20

T2 sequence (P48775 whole entry): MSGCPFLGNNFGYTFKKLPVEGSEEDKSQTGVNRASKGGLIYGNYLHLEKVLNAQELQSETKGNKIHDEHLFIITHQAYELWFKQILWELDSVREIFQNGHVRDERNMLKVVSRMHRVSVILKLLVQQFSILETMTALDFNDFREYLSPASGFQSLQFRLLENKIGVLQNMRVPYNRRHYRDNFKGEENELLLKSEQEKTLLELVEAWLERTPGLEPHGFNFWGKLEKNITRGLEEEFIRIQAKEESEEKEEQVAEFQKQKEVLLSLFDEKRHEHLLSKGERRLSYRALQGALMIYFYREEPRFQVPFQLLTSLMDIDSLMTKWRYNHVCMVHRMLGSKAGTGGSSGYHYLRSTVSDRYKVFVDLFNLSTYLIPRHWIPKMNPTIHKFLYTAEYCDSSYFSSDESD
T1 sequence (P14902 whole entry): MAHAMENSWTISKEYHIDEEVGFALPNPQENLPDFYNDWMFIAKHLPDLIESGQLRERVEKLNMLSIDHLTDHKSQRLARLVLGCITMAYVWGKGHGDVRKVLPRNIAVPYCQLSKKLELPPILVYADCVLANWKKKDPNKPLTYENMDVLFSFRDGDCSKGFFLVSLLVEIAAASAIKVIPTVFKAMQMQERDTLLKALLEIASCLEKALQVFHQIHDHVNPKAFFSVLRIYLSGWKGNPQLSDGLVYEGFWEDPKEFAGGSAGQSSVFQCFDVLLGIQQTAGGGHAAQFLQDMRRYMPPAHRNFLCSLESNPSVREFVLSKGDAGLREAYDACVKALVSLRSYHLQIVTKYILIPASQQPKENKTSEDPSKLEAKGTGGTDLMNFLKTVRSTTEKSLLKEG

IC50 [1] | IC50 [2] | SMILES | further results
34 nM | 58 nM | COC(=O)c1ccc(-n2nnc3c2C(=O)c2ccccc2C3=O)cc1 | –
> 10000 nM | > 10000 nM | O=C1c2ccccc2C(=O)c2c1nnn2-c1ccccc1Cl | –
78 nM | 104 nM | O=C1c2ccccc2C(=O)c2c1nnn2-c1ccc2[nH]cnc2c1 | –
100 nM | 70 nM | O=C1c2ccccc2C(=O)c2c1nnn2-c1ccccc1 | –
23 nM | 18 nM | O=C1c2ccccc2C(=O)c2c1nnn2-c1ccc(Cl)c(Cl)c1 | –
658 nM | – | CN1CCN(C(=O)c2cccc(Cn3nnc4c3C(=O)c3ccccc3C4=O)c2)CC1 | –
5 nM | 4 nM | O=C1c2cc(F)ccc2C(=O)c2c1nnn2-c1ccc(F)c(Cl)c1 | Activity [3]: Non-Toxic; inhibition in vivo at 30 mg/kg [4]: 80%; Activity [5]: Not Active; IC50 [6]: 98 nM; Activity [7]: Not Active; Activity [8]: Non-Toxic; inhibition in vivo at 30 mg/kg [9]: 62.5%; solubility [10]: 0.16 µM (≈ 0.0553 µg/mL); IC50 [11]: 59 nM
58 nM | 49 nM | O=C1c2ccccc2C(=O)c2c1nnn2-c1ccc(F)cc1 | –
33 nM | 34 nM | O=C1c2ccccc2C(=O)c2c1nnn2-c1cc(Cl)c(F)c(Cl)c1 | –
15 nM | 15 nM | O=C1c2ccccc2C(=O)c2c1nnn2-c1ccc(Cl)c([N+](=O)[O-])c1 | –
33 nM | 48 nM | O=C1c2ccccc2C(=O)c2c1nnn2-c1ccc([N+](=O)[O-])cc1 | –
27 nM | 25 nM | O=C1c2ccccc2C(=O)c2c1nnn2-c1ccc(Cl)nc1 | –
10 nM | 10 nM | O=C1c2ccc(F)cc2C(=O)c2c1nnn2-c1ccc(F)c(Cl)c1 | –
23 nM | 21 nM | O=C1c2ccccc2C(=O)c2c1nnn2-c1cccnc1 | –
30 nM | 48 nM | NS(=O)(=O)c1ccc(-n2nnc3c2C(=O)c2ccccc2C3=O)cc1 | –
> 10000 nM | > 10000 nM | CN1CCN(c2ccc(-n3nnc4c3C(=O)c3ccccc3C4=O)cc2)CC1 | –
– | > 10000 nM | NS(=O)(=O)NCCNc1nonc1C(=NO)Nc1ccc(F)c(Br)c1 [EPACADOSTAT] | –
886 nM | 858 nM | O=C1c2ccccc2C(=O)c2c1nnn2Cc1ccccc1 | –
81 nM | 132 nM | CC(=O)Nc1cccc(-n2nnc3c2C(=O)c2ccccc2C3=O)c1 | –

IC50 [1] | IC50 [2] | SMILES | further results
26 nM | 66 nM | N#Cc1ccc(-n2nnc3c2C(=O)c2ccccc2C3=O)cc1 | –
30 nM | 25 nM | O=C1c2ccccc2C(=O)c2c1nnn2-c1ccc(C(F)(F)F)c(Cl)c1 | –
144 nM | 171 nM | O=C1c2cc(O)ccc2C(=O)c2c1nnn2-c1ccc(F)c(Cl)c1 | –
45 nM | 42 nM | O=C1c2ccccc2C(=O)c2c1nnn2-c1ccc2[nH]ncc2c1 | –
163 nM | 105 nM | COc1ccc2c(c1)C(=O)c1nnn(-c3ccc(F)c(Cl)c3)c1C2=O | –
29 nM | 28 nM | O=C1c2ccccc2C(=O)c2c1nnn2-c1cccc([N+](=O)[O-])c1 | –
355 nM | 384 nM | O=C1c2ccc(O)cc2C(=O)c2c1nnn2-c1ccc(F)c(Cl)c1 | –
122 nM | 64 nM | Cc1cccc(-n2nnc3c2C(=O)c2ccccc2C3=O)c1 | –
113 nM | 248 nM | O=C1c2ccccc2C(=O)c2c1nnn2-c1cnc(Cl)c(Cl)c1 | –
– | – | NS(=O)(=O)NCCNc1nonc1/C(=N/O)Nc1ccc(F)c(Br)c1 [EPACADOSTAT] | inhibition in vivo at 30 mg/kg [4]: 50%; TGI (LL2): Active
60 nM | 25 nM | O=C1c2ccccc2C(=O)c2c1nnn2-c1ccc(-c2nnn[nH]2)cc1 | –
40 nM | 36 nM | O=C1c2ccccc2C(=O)c2c1nnn2-c1cccc(Cl)c1 | –
13 nM | 14 nM | O=C1c2ccccc2C(=O)c2c1nnn2-c1ccc(F)c(Cl)c1 | –
52 nM | 101 nM | O=C1c2ccccc2C(=O)c2c1nnn2-c1cccc(F)c1 | –
40 nM | 34 nM | O=C1c2ccccc2C(=O)c2c1nnn2-c1ccc2ccncc2c1 | –
23 nM | 15 nM | O=C1c2ccccc2C(=O)c2c1nnn2-c1ccc(Cl)cc1 | –
20 nM | 18 nM | O=C1c2ccccc2C(=O)c2c1nnn2-c1ccc(Cl)c(F)c1 | –
114 nM | 71 nM | O=C(O)c1cccc(-n2nnc3c2C(=O)c2ccccc2C3=O)c1 | –
> 10000 nM | > 10000 nM | COc1ccc2c(c1)C(=O)c1c(nnn1-c1ccc(F)c(Cl)c1)C2=O | –
